# Laboratory results reported in patent US4048320A, “Penicillins” (Beecham Group Limited, priority 1975, dated 1977).
# Read-outs that look alike come from different tables or passages of the source.
# Assays:
# Assay type in all cases: cell-based
# E. coli = assay: MIC by serial dilution in nutrient agar; settings: Escherichia coli
# Streptococcus faecalis = assay: MIC by serial dilution in nutrient agar
# Enterobacter aerogenes = assay: MIC by serial dilution in nutrient agar; settings: Klebsiella aerogenes
# P. vulgaris = assay: MIC by serial dilution in nutrient agar; settings: Proteus vulgaris
# Klebsiella aerogenes = assay: MIC by serial dilution in nutrient agar
# P. morganii = assay: MIC by serial dilution in nutrient agar
# E. cloacae = assay: MIC by serial dilution in nutrient agar; settings: Enterobacter cloacae
# Serratia marcescens = assay: MIC by serial dilution in nutrient agar
# P. rettgeri = assay: MIC by serial dilution in nutrient agar; settings: Providencia rettgeri
# Proteus mirabilis = assay: MIC by serial dilution in nutrient agar
# Citrobacter freundii = assay: MIC by serial dilution in nutrient agar
# [1] = tested on: a range of Gram-negative bacteria and Strep. Faecalis; assay: Microbiological evaluation, comparison of MIC values of the two compounds (Table I); settings: from MIC values of Table I
# [2] = E. coli strain JT1, read-out: MIC
# [3] = E. coli strain JT39R+, read-out: MIC
# [4] = E. coli strain JT56R+, read-out: MIC
# [5] = E. coli strain JT68R+, read-out: MIC
# [6] = E. coli strain JT103, read-out: MIC
# [7] = E. coli strain JT147, read-out: MIC
# [8] = E. coli strain JT454C+, read-out: MIC
# [9] = E. coli strain JT460C+, read-out: MIC
# [10] = Enterococcus faecalis, Streptococcus faecalis strain Weaver, read-out: MIC
# [11] = Streptococcus faecalis strain A
# [12] = Streptococcus faecalis strain Page
# [13] = Enterobacter aerogenes strain T730
# [14] = Enterobacter aerogenes strain T755
# [15] = Klebsiella aerogenes strain B195R+
# [16] = Klebsiella aerogenes strain E70
# [17] = Klebsiella aerogenes strain I229
# [18] = Klebsiella aerogenes strain I281
# [19] = Klebsiella aerogenes strain T312
# [20] = Morganella morganii, P. morganii strain DU10, read-out: MIC
# [21] = Serratia marcescens strain US30
# [22] = Serratia marcescens strain US39R+
# [23] = Proteus mirabilis strain H-WF, read-out: MIC
# [24] = Citrobacter freundii strain T745
# [25] = Citrobacter freundii strain W18
SMILES,MIC (E. coli; [2]) [µg/mL],MIC (E. coli; E. coli strain JT2OR+) [µg/mL],MIC (E. coli; [3]) [µg/mL],MIC (E. coli; [4]) [µg/mL],MIC (E. coli; [5]) [µg/mL],MIC (E. coli; [6]) [µg/mL],MIC (E. coli; [7]) [µg/mL],MIC (E. coli; [8]) [µg/mL],MIC (E. coli; [9]) [µg/mL],MIC (Streptococcus faecalis; [10]) [µg/mL],MIC (Streptococcus faecalis; [11]) [µg/mL],MIC (Streptococcus faecalis; [12]) [µg/mL],MIC (Enterobacter aerogenes; [13]) [µg/mL],MIC (Enterobacter aerogenes; [14]) [µg/mL],MIC (P. vulgaris; P. vulgaris strain C) [µg/mL],MIC (P. vulgaris; P. vulgaris strain I) [µg/mL],MIC (P. vulgaris; P. vulgaris strain K) [µg/mL],MIC (Klebsiella aerogenes; [15]) [µg/mL],MIC (Klebsiella aerogenes; [16]) [µg/mL],MIC (Klebsiella aerogenes; [17]) [µg/mL],also measured
"COC1(NC(=O)C(C(=O)O)c2ccccc2)C(=O)N2C(C(=O)O)C(C)(C)SC21 (stereo not drawn) [6-methoxy carbenicillin, 6α-methoxy-6β-(2-carboxyphenylacetamido)penicillanic acid, reference compound]",5,5,12.5,12.5,12.5,5,12.5,5,12.5,> 500,> 500,> 500,5,5,< 0.5,5,12.5,25,5,12.5,MIC (Klebsiella aerogenes; [18]): 12.5 µg/mL; MIC (Klebsiella aerogenes; [19]): 12.5 µg/mL; MIC (P. morganii; [20]): 5 µg/mL; MIC (P. morganii; P. morganii strain DU718): 5.0 µg/mL; MIC (E. cloacae; E. cloacae strain T629): 5 µg/mL; MIC (E. cloacae; E. cloacae strain T763): 5 µg/mL; MIC (Serratia marcescens; Serratia marcescens strain US1): 5 µg/mL; MIC (Serratia marcescens; [21]): 12.5 µg/mL; MIC (Serratia marcescens; [22]): 5 µg/mL; MIC (P. rettgeri; P. rettgeri strain B): 5 µg/mL; MIC (P. rettgeri; P. rettgeri strain I): 5 µg/mL; MIC (P. rettgeri; P. rettgeri strain R110): 5 µg/mL; MIC (Proteus mirabilis; Proteus mirabilis strain BS66): 5.0 µg/mL; MIC (Proteus mirabilis; Proteus mirabilis strain CT13): 5.0 µg/mL; MIC (Proteus mirabilis; [23]): 5 µg/mL; MIC (Proteus mirabilis; Proteus mirabilis strain T251): 5.0 µg/mL; MIC (Citrobacter freundii; [24]): 5 µg/mL; MIC (Citrobacter freundii; [25]): 12.5 µg/mL
"COC1(NC(=O)C(C(=O)O)c2ccsc2)C(=O)N2C(C(=O)O)C(C)(C)SC21 [6-methoxy ticarcillin, 6-β-(D,L-2-Carboxy-2-thien-3'-ylacetamido)-6-α-methoxypenicillanic acid]",2.5,5,5,5,5,2.5,5,5,5,> 500,> 500,> 500,1.2,2.5,< 0.5,2.5,5,5,2.5,5,MIC (Klebsiella aerogenes; [18]): 5 µg/mL; MIC (Klebsiella aerogenes; [19]): 5 µg/mL; MIC (P. morganii; [20]): 2.5 µg/mL; MIC (P. morganii; P. morganii strain DU718): 2.5 µg/mL; MIC (E. cloacae; E. cloacae strain T629): 2.5 µg/mL; MIC (E. cloacae; E. cloacae strain T763): 1.2 µg/mL; MIC (Serratia marcescens; Serratia marcescens strain US1): 2.5 µg/mL; MIC (Serratia marcescens; [21]): 5 µg/mL; MIC (Serratia marcescens; [22]): 2.5 µg/mL; MIC (P. rettgeri; P. rettgeri strain B): 2.5 µg/mL; MIC (P. rettgeri; P. rettgeri strain I): 5 µg/mL; MIC (P. rettgeri; P. rettgeri strain R110): 2.5 µg/mL; activity relative to the corresponding phenyl compound (6-methoxy carbenicillin) [1]: consistently two-fold more active; MIC (Proteus mirabilis; Proteus mirabilis strain BS66): 2.5 µg/mL; MIC (Proteus mirabilis; Proteus mirabilis strain CT13): 2.5 µg/mL; MIC (Proteus mirabilis; [23]): 2.5 µg/mL; MIC (Proteus mirabilis; Proteus mirabilis strain T251): 2.5 µg/mL; MIC (Citrobacter freundii; [24]): 2.5 µg/mL; MIC (Citrobacter freundii; [25]): 2.5 µg/mL
